Assay [1] has as its target Dual specificity protein kinase CLK1 (Homo sapiens) (UniProt P49759). The experiment in a line: CLK1 SGC Tm panel (DSF). The following applies: for ΔTm: Compound concentration 10.0 uM.
The target of assay [2] is Mitogen-activated protein kinase 9 (Homo sapiens) (UniProt P45984). The experiment in a line: MAPK9 SGC Tm panel (DSF). The conditions noted are these: for ΔTm: Compound concentration 10.0 uM.
The target of assay [3] is Histamine H3 receptor (Homo sapiens) (UniProt Q9Y5N1). The following applies: Compound concentration 10.0 uM.
The target of assay [4] is T1, Ephrin type-B receptor 1 (Homo sapiens) (UniProt P54762).
T1 sequence (whole entry): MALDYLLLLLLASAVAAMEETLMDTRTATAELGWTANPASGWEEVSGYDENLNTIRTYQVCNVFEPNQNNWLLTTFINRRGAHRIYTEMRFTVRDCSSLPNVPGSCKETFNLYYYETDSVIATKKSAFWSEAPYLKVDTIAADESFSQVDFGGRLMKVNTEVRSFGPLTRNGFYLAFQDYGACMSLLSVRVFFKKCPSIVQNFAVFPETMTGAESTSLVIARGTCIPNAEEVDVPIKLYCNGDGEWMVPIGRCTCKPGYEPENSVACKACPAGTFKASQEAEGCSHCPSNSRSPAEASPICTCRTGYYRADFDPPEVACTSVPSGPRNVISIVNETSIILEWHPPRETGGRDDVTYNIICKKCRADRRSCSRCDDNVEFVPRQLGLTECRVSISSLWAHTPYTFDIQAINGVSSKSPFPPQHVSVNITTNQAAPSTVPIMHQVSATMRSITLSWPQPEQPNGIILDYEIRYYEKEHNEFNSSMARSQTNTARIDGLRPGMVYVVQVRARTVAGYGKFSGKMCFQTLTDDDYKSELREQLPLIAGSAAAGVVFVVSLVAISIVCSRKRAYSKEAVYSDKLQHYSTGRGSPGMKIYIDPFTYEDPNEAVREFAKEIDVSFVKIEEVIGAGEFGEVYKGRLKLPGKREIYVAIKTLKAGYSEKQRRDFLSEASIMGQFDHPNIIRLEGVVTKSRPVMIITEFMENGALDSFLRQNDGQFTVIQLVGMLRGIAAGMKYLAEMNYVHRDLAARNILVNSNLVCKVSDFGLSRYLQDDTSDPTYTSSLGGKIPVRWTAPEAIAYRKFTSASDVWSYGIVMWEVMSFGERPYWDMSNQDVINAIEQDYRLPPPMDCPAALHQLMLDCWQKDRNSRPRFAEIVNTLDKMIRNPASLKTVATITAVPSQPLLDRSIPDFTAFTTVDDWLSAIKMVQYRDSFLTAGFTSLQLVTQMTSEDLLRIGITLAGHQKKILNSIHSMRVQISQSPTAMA
The assay can be described thus: EPHB1 SGC Tm panel (DSF). The conditions noted are these: for ΔTm: Compound concentration 10.0 uM.

In assay [5] the target is T2, Peripheral plasma membrane protein CASK (Homo sapiens) (UniProt O14936).
T2 sequence (whole entry): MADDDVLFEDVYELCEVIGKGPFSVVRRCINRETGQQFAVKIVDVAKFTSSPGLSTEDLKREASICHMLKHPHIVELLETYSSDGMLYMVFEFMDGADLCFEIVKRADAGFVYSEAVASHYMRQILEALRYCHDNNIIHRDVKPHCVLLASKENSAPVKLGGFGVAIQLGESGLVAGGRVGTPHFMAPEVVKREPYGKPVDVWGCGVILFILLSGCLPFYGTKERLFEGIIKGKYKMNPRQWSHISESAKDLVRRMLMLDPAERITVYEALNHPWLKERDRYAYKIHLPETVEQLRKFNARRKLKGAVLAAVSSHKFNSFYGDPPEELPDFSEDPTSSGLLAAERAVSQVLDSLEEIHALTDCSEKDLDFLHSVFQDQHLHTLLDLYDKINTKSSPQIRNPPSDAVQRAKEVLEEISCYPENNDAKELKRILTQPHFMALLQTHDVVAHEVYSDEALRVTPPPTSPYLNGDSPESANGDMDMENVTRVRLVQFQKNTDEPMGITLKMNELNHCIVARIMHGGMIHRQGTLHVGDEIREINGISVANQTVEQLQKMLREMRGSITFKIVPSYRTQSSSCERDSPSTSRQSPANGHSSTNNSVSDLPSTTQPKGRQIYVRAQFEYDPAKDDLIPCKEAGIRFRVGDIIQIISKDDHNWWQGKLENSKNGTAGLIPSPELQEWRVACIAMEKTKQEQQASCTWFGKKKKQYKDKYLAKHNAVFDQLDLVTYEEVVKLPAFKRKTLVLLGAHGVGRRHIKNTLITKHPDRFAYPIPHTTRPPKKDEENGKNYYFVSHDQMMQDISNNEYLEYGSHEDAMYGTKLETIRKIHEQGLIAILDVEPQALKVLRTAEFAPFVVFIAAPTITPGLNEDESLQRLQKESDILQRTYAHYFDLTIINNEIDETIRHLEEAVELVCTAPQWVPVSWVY
The assay can be described thus: CASK SGC Tm panel (DSF). The conditions noted are these: for ΔTm: Compound concentration 10.0 uM.

In assay [6] the target is Serine/threonine-protein kinase PAK 4 (Homo sapiens) (UniProt O96013). The assay can be described thus: PAK4 SGC Tm panel (DSF). The conditions noted are these: for ΔTm: Compound concentration 10.0 uM.
In assay [7] the target is Serine/threonine-protein kinase OSR1 (Homo sapiens) (UniProt O95747). The experiment in a line: OSR1 SGC Tm panel (DSF). The conditions noted are these: for ΔTm: Compound concentration 10.0 uM.
For assay [8], the target named is Dual specificity mitogen-activated protein kinase kinase 1 (Homo sapiens) (UniProt Q02750). The experiment in a line: MAP2K1 SGC Tm panel (DSF). The following applies: for ΔTm: Compound concentration 10.0 uM.
Assay [9] deals with Tyrosine-protein kinase Fes/Fps (Homo sapiens) (UniProt P07332). The assay can be described thus: FES SGC Tm panel (DSF). The conditions noted are these: for ΔTm: Compound concentration 10.0 uM.
Assay [10] addresses G protein-coupled receptor kinase 5 (Homo sapiens) (UniProt P34947). The assay can be described thus: GPRK5 SGC Tm panel (DSF). The following applies: for ΔTm: Compound concentration 10.0 uM.
The target of assay [11] is T3, Dual specificity mitogen-activated protein kinase kinase 4 (Homo sapiens) (UniProt P45985).
T3 sequence (whole entry): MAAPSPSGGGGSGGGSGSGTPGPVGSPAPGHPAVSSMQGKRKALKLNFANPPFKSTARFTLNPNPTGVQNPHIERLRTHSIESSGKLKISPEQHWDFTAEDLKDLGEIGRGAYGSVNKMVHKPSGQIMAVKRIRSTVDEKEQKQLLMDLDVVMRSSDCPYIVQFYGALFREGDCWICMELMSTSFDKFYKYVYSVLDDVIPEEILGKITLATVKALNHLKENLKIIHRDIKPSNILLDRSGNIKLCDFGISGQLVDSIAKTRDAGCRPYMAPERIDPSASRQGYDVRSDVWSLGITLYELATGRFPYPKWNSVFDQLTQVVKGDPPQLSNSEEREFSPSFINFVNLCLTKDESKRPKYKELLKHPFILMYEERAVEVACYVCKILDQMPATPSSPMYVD
The experiment in a line: MAP2K4 SGC Tm panel (DSF). The conditions noted are these: for ΔTm: Compound concentration 10.0 uM.

Our source for the delta Tm Staurosporine positive control, ΔTm and inhibition values is ChEMBL document CHEMBL5303765, “Data for DCP probe BAY-7081” (2023).

Histamine H3 receptor (Homo sapiens), sequence (Q9Y5N1 whole entry): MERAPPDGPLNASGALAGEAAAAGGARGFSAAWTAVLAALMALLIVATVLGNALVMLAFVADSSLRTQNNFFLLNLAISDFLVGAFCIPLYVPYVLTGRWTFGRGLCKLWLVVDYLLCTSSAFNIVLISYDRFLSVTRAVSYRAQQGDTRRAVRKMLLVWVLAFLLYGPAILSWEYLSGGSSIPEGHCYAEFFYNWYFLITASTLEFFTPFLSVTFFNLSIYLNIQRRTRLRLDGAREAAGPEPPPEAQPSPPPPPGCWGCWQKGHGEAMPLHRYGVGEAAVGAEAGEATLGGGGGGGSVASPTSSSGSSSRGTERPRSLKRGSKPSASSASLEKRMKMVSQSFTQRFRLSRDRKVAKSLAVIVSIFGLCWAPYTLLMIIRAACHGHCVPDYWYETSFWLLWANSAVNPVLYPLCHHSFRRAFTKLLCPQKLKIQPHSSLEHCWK
G protein-coupled receptor kinase 5 (Homo sapiens), sequence (P34947 whole entry, looked up): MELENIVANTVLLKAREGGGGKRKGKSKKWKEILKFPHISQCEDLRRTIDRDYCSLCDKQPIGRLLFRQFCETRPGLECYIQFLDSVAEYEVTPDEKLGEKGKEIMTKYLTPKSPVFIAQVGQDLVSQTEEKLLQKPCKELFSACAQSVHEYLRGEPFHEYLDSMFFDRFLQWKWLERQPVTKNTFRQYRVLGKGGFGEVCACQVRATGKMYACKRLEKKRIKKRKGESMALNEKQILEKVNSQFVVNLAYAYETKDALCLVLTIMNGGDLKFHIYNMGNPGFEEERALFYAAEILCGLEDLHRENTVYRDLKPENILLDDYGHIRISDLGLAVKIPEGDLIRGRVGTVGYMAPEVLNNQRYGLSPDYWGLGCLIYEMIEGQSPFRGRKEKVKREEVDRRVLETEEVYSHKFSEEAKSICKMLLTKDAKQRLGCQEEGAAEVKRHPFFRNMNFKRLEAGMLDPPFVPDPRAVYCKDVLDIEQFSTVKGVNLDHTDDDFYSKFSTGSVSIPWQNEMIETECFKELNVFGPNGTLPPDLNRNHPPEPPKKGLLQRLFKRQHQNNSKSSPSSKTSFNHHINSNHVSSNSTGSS
Dual specificity mitogen-activated protein kinase kinase 1 (Homo sapiens), sequence (Q02750 whole entry): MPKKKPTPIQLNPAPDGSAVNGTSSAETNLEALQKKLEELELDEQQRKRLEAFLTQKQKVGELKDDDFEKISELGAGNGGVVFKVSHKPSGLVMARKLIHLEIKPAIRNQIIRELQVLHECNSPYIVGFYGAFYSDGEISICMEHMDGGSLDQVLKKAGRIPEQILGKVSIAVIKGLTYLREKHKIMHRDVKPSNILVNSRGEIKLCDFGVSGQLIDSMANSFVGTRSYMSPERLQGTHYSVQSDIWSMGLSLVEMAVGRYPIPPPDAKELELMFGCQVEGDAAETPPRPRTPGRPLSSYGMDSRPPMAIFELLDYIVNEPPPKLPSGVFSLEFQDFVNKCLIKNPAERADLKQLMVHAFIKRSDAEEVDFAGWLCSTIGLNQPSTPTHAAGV
Dual specificity protein kinase CLK1 (Homo sapiens), sequence (P49759 whole entry, looked up): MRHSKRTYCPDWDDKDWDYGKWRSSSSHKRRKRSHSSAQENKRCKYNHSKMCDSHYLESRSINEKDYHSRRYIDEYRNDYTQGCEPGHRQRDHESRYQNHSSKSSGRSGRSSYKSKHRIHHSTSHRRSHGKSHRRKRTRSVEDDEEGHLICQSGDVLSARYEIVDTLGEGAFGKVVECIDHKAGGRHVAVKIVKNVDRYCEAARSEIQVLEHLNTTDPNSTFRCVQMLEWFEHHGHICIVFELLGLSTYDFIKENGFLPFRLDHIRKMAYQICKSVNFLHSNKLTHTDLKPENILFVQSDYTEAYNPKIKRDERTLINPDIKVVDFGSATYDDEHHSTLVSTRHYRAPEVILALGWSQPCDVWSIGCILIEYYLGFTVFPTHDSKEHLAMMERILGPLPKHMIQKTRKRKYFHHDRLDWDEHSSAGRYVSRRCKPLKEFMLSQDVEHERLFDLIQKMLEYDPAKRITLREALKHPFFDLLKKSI
Tyrosine-protein kinase Fes/Fps (Homo sapiens), sequence (P07332 whole entry): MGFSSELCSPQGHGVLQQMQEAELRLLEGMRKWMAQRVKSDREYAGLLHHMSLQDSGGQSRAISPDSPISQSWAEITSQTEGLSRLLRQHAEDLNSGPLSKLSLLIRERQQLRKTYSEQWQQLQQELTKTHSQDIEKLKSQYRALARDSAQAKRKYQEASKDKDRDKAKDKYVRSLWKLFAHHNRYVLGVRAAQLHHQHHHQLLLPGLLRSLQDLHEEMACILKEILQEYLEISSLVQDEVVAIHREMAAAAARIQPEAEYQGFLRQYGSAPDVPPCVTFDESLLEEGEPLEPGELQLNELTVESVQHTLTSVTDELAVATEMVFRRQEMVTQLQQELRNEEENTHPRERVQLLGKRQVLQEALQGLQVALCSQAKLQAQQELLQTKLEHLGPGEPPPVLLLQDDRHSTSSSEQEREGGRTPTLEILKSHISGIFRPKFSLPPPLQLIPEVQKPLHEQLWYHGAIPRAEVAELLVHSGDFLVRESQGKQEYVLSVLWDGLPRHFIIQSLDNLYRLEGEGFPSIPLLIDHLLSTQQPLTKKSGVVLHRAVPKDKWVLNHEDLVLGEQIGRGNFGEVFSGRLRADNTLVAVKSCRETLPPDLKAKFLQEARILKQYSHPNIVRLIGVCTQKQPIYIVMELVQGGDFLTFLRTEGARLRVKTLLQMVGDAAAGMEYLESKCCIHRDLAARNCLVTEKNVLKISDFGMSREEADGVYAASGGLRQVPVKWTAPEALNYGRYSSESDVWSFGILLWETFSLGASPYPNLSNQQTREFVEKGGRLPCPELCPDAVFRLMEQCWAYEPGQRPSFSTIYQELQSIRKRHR
Mitogen-activated protein kinase 9 (Homo sapiens), sequence (P45984 whole entry, looked up): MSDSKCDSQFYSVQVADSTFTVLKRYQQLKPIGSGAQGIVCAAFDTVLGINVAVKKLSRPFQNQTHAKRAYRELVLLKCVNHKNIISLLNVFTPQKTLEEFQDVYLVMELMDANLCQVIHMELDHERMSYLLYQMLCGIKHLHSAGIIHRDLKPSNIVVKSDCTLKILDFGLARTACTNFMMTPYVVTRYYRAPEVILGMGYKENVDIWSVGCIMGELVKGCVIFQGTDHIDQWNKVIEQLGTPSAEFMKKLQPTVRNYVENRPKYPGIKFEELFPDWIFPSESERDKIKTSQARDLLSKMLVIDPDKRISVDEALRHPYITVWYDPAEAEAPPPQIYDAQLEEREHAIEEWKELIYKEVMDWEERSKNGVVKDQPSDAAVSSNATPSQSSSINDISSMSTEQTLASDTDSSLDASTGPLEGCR
Serine/threonine-protein kinase OSR1 (Homo sapiens), sequence (O95747 2-527 limits assumed): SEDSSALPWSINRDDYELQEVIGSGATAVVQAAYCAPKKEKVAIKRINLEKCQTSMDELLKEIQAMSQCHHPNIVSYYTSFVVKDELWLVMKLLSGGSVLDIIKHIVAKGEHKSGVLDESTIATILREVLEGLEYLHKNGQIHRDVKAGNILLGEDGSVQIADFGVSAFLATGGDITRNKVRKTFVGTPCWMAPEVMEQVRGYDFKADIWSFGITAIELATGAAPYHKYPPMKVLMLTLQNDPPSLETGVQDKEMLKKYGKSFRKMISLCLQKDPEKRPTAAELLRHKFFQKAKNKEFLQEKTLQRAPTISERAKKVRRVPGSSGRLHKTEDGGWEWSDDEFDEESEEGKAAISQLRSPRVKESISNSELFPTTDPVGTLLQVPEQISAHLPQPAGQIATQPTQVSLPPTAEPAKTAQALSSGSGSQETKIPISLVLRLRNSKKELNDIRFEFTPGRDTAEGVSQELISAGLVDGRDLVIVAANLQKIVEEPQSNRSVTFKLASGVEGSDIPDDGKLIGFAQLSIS
Serine/threonine-protein kinase PAK 4 (Homo sapiens), sequence (O96013 whole entry, looked up): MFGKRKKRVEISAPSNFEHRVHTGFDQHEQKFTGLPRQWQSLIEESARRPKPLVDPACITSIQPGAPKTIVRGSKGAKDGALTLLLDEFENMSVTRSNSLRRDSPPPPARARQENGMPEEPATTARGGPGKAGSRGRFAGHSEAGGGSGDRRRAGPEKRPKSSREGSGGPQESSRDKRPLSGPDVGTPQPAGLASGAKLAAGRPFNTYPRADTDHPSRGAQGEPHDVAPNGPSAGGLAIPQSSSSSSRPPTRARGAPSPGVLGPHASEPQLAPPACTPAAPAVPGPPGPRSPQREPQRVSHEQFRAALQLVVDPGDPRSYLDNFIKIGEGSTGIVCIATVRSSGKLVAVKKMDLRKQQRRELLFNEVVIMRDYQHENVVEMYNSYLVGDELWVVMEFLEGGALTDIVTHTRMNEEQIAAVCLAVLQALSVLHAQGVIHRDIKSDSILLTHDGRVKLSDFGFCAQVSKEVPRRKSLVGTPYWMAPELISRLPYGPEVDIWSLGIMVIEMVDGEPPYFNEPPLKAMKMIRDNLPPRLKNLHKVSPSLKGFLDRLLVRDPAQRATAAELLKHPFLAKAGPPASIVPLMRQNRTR

With `CCC[C@@H]1CNCc2c1[nH]c(=O)c(C#N)c2N1CCC2(CC1)CC2`, the delta Tm Staurosporine positive control in assay [1] came to 11.4; in assay [2], 3.03; in assay [4], 5.62; in assay [5] it was 4.28; in assay [6] it was 15.1; in assay [7] it was 8.41. Further, the delta Tm Staurosporine positive control is 6.3 in [8], 9.22 in [9], 7.03 in assay [10] and 11.8 in [11]. In addition, the ΔTm in assay [1] was -0.372; in assay [2], -0.0844; in assay [4], 0.00973; in assay [5], -0.0745; in assay [6], 0.121; in assay [7] it was 0.204. Also, the ΔTm in [8] was -0.203; in [9], -0.389; in assay [10], 0.00192; in assay [11], -0.34. The inhibition in assay [3] is -1.01%.
Consider `CCC[C@H]1CNCc2c1[nH]c(=O)c(C#N)c2N1CCC2(CC1)CC2`, for which the delta Tm Staurosporine positive control in [1] was 11.4; in assay [2] it was 3.03; in assay [4], 5.62; in assay [5], 4.28; in assay [6], 15.1; in assay [7] it was 8.41. Also, the delta Tm Staurosporine positive control is 6.3 in [8], 9.22 in assay [9], 7.03 in assay [10] and 11.8 in [11]. The ΔTm in assay [1] is -0.548; in assay [2] it was -0.605; in assay [4], 0.0299; in assay [5] it was -0.242; in [6] it was 0.134; in [7], -0.0871. Also, the ΔTm was -0.252 in [8], -0.11 in [9], 0.0527 in assay [10] and -0.306 in [11]. In addition, in assay [3], the inhibition was -0.66%.

Broadly, the inhibition is the relative decrease from the control value, in per cent.
